# Patent US5169855A, “Piperidine ether derivatives as psychotropic drugs or plant fungicides” (priority 1990, dated 1992)
# Test system: Erysiphe graminis f. sp. tritici
# Experiment: Test A: wheat powdery mildew disease control (wheat seedlings)
# Type: in vivo
# Details: sprayed at 1000 to 2 ppm (rate not given per compound)
# Protocol: The test compounds were dissolved in acetone in an amount equal to 6% of the final volume and then suspended at a concentration of from 1000 to 2 ppm in purified water containing 250 ppm of the surfactant TREM 014 (polyhydric alcohol esters). This suspension was sprayed to the point of run-off on wheat seedlings. The following day plants were inoculated with a spore dust of Erysiphe graminis f. sp. tritici, the causal agent of wheat powdery mildew, and incubated in a growth chamber at 20° C. for 7 days, when disease ratings were made.
row,Compound,"disease control rating, Test A"
1,Fc1ccc(COCC2CCN(CCCc3ccccc3)CC2)cc1 [Example 313],97%
2,Fc1ccc(COCC2CCN(Cc3ccccc3)CC2)cc1 [Example 205],94%
3,Oc1ccc(CN2CCC(COCc3ccc(F)cc3)CC2)cc1 [Example 189],99%

# Test system: sigma receptor
# Experiment: not given
# Details: Tam, Eur. Pharmacol. 109: 33-41 (1985); cited from earlier work
row,Compound,affinity for the sigma receptor (in words)
1,c1ccc(C2(N3CCCCC3)CCCCC2)cc1 [PCP],significant affinity

# Test system: Phytophthora infestans
# Experiment: not given
# Type: in vivo
# Details: tomato late blight; sprayed at 1000 to 2 ppm (rate not given per compound)
row,Compound,"disease control rating, Test F"
1,Fc1ccc(COCC2CCN(CCCc3ccccc3)CC2)cc1 [Example 313],0%
2,Fc1ccc(COCC2CCN(Cc3ccccc3)CC2)cc1 [Example 205],0%
3,Oc1ccc(CN2CCC(COCc3ccc(F)cc3)CC2)cc1 [Example 189],0%

# Test system: isolation-induced aggressive behavior
# Experiment: Isolation-Induced Aggression in Mice
# Type: in vivo, mouse (male Balb/c)
# Details: po
# Protocol: Male Balb/c mice (Charles River) were used. […] Isolated mice failing to consistently attack an intruder were eliminated from the colony.
# Drug testing was carried out by treating the isolated mice with test drugs or standards. Fifteen min after dosing with drugs by the oral route (po), one isolated mouse was removed from its home cage and placed in the home cage of another isolate. Scoring was a yes or no response for each pair. A maximum of 3 min was allowed for an attack and the pair was separated immediately upon an attack. Selection of home cage and intruder mice was randomized for each test. Mice were treated and tested twice a week with at least a 2 day washout period between treatments.
row,Compound,inhibiting the isolation-induced aggressive behavior (in words)
1,Clc1ccc(OCC2CCN(Cc3ccccc3)CC2)cc1 [Example 134],potent activities
2,FC(F)(F)c1ccc(OCC2CCN(Cc3ccccc3)CC2)cc1 [Example 136],potent activities
3,"O=C(CCCN1CCC(O)(c2ccc(Cl)cc2)CC1)c1ccc(F)cc1 [Haloperidol, reference compound]",potent activities
4,O=[N+]([O-])c1ccc(OCC2CCN(Cc3ccccc3)CC2)cc1 [Example 135],potent activities
5,"Fc1ccc(OCC2CCN(Cc3ccccc3)CC2)cc1 [Example 68, 1-Benzyl-4-(4'-Fluorophenoxymethyl)piperidine]",potent activities
6,Fc1ccc(COCC2CCN(Cc3ccc4ccccc4c3)CC2)cc1 [Example 114],potent activities
7,Fc1ccc(OCC2CCN(Cc3ccc(Cl)cc3)CC2)cc1 [Example 138],potent activities

# Test system: (+)-N-allylnormetazocine-induced turning
# Experiment: (+)-N-Allylnormetazocine-Induced Turning Behavior in Rats
# Type: in vivo, rat (male Sprague-Dawley)
# Details: p.o.
row,Compound,antagonism of N-allylnormetazocine-induced rotation (in words)
1,"O=C(CCCN1CCC(O)(c2ccc(Cl)cc2)CC1)c1ccc(F)cc1 [Haloperidol, reference compound]",potently antagonized
2,"Fc1ccc(OCC2CCN(Cc3ccccc3)CC2)cc1 [Example 68, 1-Benzyl-4-(4'-Fluorophenoxymethyl)piperidine]",potently antagonized

# Test system: Venturia inaequalis
# Experiment: Test C: apple scab disease control (apple seedlings)
# Type: in vivo
# Details: sprayed at 1000 to 2 ppm (rate not given per compound)
# Protocol: (§1) The test compounds were dissolved in acetone in an amount equal to 6% of the final volume and then suspended at a concentration of from 1000 to 2 ppm in purified water containing 250 ppm of the surfactant TREM 014 (polyhydric alcohol esters). This suspension was sprayed to the point of run-off on apple seedlings. The following day plants were inoculated with a spore suspension of Venturia inaequalis, the causal agent of apple scab, and incubated in a saturated humidity chamber at 20° C. for 24 hours and then in a growth chamber at 22° C. for 11 days, when disease ratings were made.
row,Compound,"disease control rating, Test C"
1,Fc1ccc(COCC2CCN(CCCc3ccccc3)CC2)cc1 [Example 313],40%
2,Fc1ccc(COCC2CCN(Cc3ccccc3)CC2)cc1 [Example 205],66%
3,Oc1ccc(CN2CCC(COCc3ccc(F)cc3)CC2)cc1 [Example 189],86%

# Test system: Botrytis cinerea
# Experiment: Test E: cucumber grey mold disease control (cucumber seedlings)
# Type: in vivo
# Details: sprayed at 1000 to 2 ppm (rate not given per compound)
# Protocol: as §1, with “cucumber” for “apple”, “Botrytis cinerea,” for “Venturia inaequalis,”, “cucumber grey mold,” for “apple scab,”, “48” for “24”, “greenhouse” for “growth chamber at 22° C.”, “5” for “11”
row,Compound,"disease control rating, Test E"
1,Fc1ccc(COCC2CCN(CCCc3ccccc3)CC2)cc1 [Example 313],0%
2,Fc1ccc(COCC2CCN(Cc3ccccc3)CC2)cc1 [Example 205],33%
3,Oc1ccc(CN2CCC(COCc3ccc(F)cc3)CC2)cc1 [Example 189],0%

# Test system: Cercosporidum personatum
# Experiment: Test D: peanut late leaf spot disease control (peanut seedlings)
# Type: in vivo
# Details: sprayed at 1000 to 2 ppm (rate not given per compound)
# Protocol: The test compounds were dissolved in acetone in an amount equal to 6% of the final volume and then suspended at a concentration of from 1000 to 2 ppm in purified water containing 250 ppm of the surfactant TREM 014 (polyhydric alcohol esters). This suspension was sprayed to the point of run-off on peanut seedlings. The following day plants were inoculated with a spore suspension of Cercosporidum personatum, the causal agent of peanut late leaf spot, and incubated in a saturated humidity chamber at 22° C. for 24 hours and then in a high humidity chamber at 27° C. for 7 days, and then in a growth chamber at 29° C. for 7 days, when disease ratings were made.
row,Compound,"disease control rating, Test D"
1,Fc1ccc(COCC2CCN(CCCc3ccccc3)CC2)cc1 [Example 313],91%
2,Fc1ccc(COCC2CCN(Cc3ccccc3)CC2)cc1 [Example 205],30%
3,Oc1ccc(CN2CCC(COCc3ccc(F)cc3)CC2)cc1 [Example 189],75%

# Test system: Pyricularia oryzae
# Experiment: not given
# Type: in vivo
# Details: rice blast; sprayed at 1000 to 2 ppm (rate not given per compound)
row,Compound,"disease control rating, Test H"
1,Fc1ccc(COCC2CCN(CCCc3ccccc3)CC2)cc1 [Example 313],0%
2,Fc1ccc(COCC2CCN(Cc3ccccc3)CC2)cc1 [Example 205],0%
3,Oc1ccc(CN2CCC(COCc3ccc(F)cc3)CC2)cc1 [Example 189],0%

# Test system: Rhizoctonia solani
# Experiment: Test I: rice sheath blight disease control (rice seedlings)
# Type: in vivo
# Details: sprayed at 1000 to 2 ppm (rate not given per compound)
# Protocol: The test compounds were dissolved in acetone in an amount equal to 6% of the final volume and then suspended at a concentration of from 1000 to 2 ppm in purified water containing 250 ppm of the surfactant TREM 014 (polyhydric alcohol esters). This suspension was sprayed to the point of run-off on rice seedlings. The following day plants were inoculated with a mycelial suspension of Rhizoctonia solani, the causal agent of rice sheath blight, and incubated in a saturated humidity chamber at 27° C. for 48 hours and then in a growth chamber at 29° C. for 4 days, when disease ratings were made.
row,Compound,"disease control rating, Test I"
1,Fc1ccc(COCC2CCN(CCCc3ccccc3)CC2)cc1 [Example 313],0%
2,Fc1ccc(COCC2CCN(Cc3ccccc3)CC2)cc1 [Example 205],0%
3,Oc1ccc(CN2CCC(COCc3ccc(F)cc3)CC2)cc1 [Example 189],0%

# Test system: Puccinia recondita
# Experiment: Test B: wheat leaf rust disease control (wheat seedlings)
# Type: in vivo
# Details: sprayed at 1000 to 2 ppm (rate not given per compound)
# Protocol: The test compounds were dissolved in acetone in an amount equal to 6% of the final volume and then suspended at a concentration of from 1000 to 2 ppm in purified water containing 250 ppm of the surfactant TREM 014 (polyhydric alcohol esters). This suspension was sprayed to the point of run-off on wheat seedlings.
row,Compound,"disease control rating, Test B"
1,Fc1ccc(COCC2CCN(CCCc3ccccc3)CC2)cc1 [Example 313],29%
2,Fc1ccc(COCC2CCN(Cc3ccccc3)CC2)cc1 [Example 205],35%
3,Oc1ccc(CN2CCC(COCc3ccc(F)cc3)CC2)cc1 [Example 189],26%
